Data: PMC9295122, “Sialic Acid Derivatives Inhibit SiaT Transporters and Delay Bacterial Growth” (ACS Chemical Biology, 2022)

Tests used:
S. aureus strain COL = test: Bacterial growth assay in MM with Neu5Ac, S. aureus; assay type: cell-based, Staphylococcus aureus; conditions: MM + Neu5Ac 3.2 mM, compound 0.5 mM, P < 0.001
Procedure: To investigate the efficacy of compounds 3e and 3f in inhibiting the uptake of Neu5Ac, bacterial growth assays were performed on a uropathogenic P. mirabilis strain HI4320 and a clinical HA-MRSA isolate S. aureus strain COL. The goal was to verify that compounds 3e and 3f alter bacterial growth when grown on Neu5Ac as an additional carbon source. Growth alteration would indicate Neu5Ac uptake impairment, thus validating our approach.
We first addressed whether these bacteria were able to catabolize the inhibitors and potentially use them as a carbon source for growth. Each strain was grown in carbon-limited defined minimal media (MM), without any carbon source other than sodium citrate for P. mirabilis and casamino acids for S. aureus, and supplemented with 3e and 3f. […] With these promising results, bacterial growth assays were performed in MM supplemented with Neu5Ac at a concentration of 3.2 mM and with 0.5 mM of compounds 3e and 3f (Figure 6a,b). The lag phase duration was determined as the time for the initial population density to increase twofold (see the horizontal dashed lines in Figure 6a,b). […] In the case of P. mirabilis, compound 3e indicated a delay in growth (3 h, P = 0.06), while no effect was recorded for compound 3f. […]

S. aureus COL = test: Growth in carbon-limited MM with inhibitor only, S. aureus; assay type: cell-based, Staphylococcus aureus; conditions: MM with casamino acids, compound 0.5 mM
Procedure: We first addressed whether these bacteria were able to catabolize the inhibitors and potentially use them as a carbon source for growth. Each strain was grown in carbon-limited defined minimal media (MM), without any carbon source other than sodium citrate for P. mirabilis and casamino acids for S. aureus, and supplemented with 3e and 3f. […] With these promising results, bacterial growth assays were performed in MM supplemented with Neu5Ac at a concentration of 3.2 mM and with 0.5 mM of compounds 3e and 3f (Figure 6a,b). The lag phase duration was determined as the time for the initial population density to increase twofold (see the horizontal dashed lines in Figure 6a,b). The effects were significant in the case of S. aureus, where a delayed growth of 4.4 and 9.4 h (P < 0.001) for compounds 3e and 3f, respectively, was observed. In the case of P. mirabilis, compound 3e indicated a delay in growth (3 h, P = 0.06), while no effect was recorded for compound 3f.
Figure S4. S. aureus COL (A) and P. mirabilis HI4320 (B) grown in defined carbon-limited minimal media (dotted line), with the addition of compound 3e (0.5 mM, solid line) or compound 3f (0.5 mM, dashed line). Average values of two biological replicates (n=2) each including two technical replicates are presented.
(1 picture or pasted object on this page, not shown here)

Row | Structure (SMILES) | delayed growth (lag phase) (S. aureus strain COL) | ability to catabolize compound (growth vs MM only) (S. aureus COL)
1 | CC(=O)NC1C(OCc2cc(F)cc(F)c2)CC(O)(C(=O)O)OC1C(O)C(O)CO (stereo not shown) [Compound 3e] | 4.4 h | no ability to catabolize
2 | CC(=O)NC1C(OCc2cc(Br)cc(Br)c2)CC(O)(C(=O)O)OC1C(O)C(O)CO (stereo not shown) [Compound 3f] | 9.4 h | no ability to catabolize
